According to PMC9310846, “Photoaffinity Capture Compounds to Profile the Magic Spot Nucleotide Interactomes” (Angewandte Chemie (International Ed. in English), 2022):

Legend:
[1] = molecular target: T1, ApaH (bis(5′‐nucleosyl)‐tetraphosphatase) (Escherichia coli, UniProt P05637); test: inhibition of Ap4A hydrolysis by ApaH; pGpp is also the product of pppGpp cleavage; assay type: biochemical
T1 sequence (P05637 1-280): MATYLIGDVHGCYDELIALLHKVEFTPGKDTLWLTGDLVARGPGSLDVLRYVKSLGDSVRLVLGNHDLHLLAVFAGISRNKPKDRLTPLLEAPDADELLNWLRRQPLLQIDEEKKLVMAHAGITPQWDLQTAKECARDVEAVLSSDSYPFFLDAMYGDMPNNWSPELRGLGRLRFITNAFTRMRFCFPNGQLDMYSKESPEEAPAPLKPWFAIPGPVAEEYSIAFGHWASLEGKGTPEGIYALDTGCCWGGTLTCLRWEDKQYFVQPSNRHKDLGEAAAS

[2] = molecular target: T1, ApaH (bis(5′‐nucleosyl)‐tetraphosphatase); test: LC-MS assay of Ap4A hydrolysis by […] ApaH; assay type: biochemical
[3] = molecular target: T1, ApaH (bis(5′‐nucleosyl)‐tetraphosphatase); test: LC-MS assay of Ap4A hydrolysis by […] ApaH; pppGpp is also hydrolysed to pGpp (KM […]); assay type: biochemical
purified protein = substrate: Nc1nc2c(ncn2[C@@H]2O[C@H](COP(=O)(O)OP(=O)(O)OP(=O)(O)O)[C@@H](O)[C@H]2O)c(=O)[nH]1; test: purified protein; assay type: biochemical, Escherichia coli; conditions: Co2+

Nc1nc2c(ncn2[C@@H]2O[C@H](COP(=O)(O)O)[C@@H](OP(=O)(O)OP(=O)(O)O)[C@H]2O)c(=O)[nH]1 [pGpp] was tested, and the IC50 [1] was 190 ± 30 µM.

Molecule Nc1nc2c(ncn2[C@@H]2O[C@H](COP(=O)(O)OP(=O)(O)O)[C@@H](OP(=O)(O)OP(=O)(O)O)[C@H]2O)c(=O)[nH]1 [ppGpp] has an IC50 [2] of 21 ± 7 µM.

With Nc1nc2c(ncn2[C@@H]2O[C@H](COP(=O)(O)OP(=O)(O)OP(=O)(O)O)[C@@H](OP(=O)(O)OP(=O)(O)O)[C@H]2O)c(=O)[nH]1 [pppGpp] the IC50 [3] was 8 ± 3 µM.

B1: ApaH (bis(5′‐nucleosyl)‐tetraphosphatase) (Escherichia coli K-12) (protein)
chain: MATYLIGDVHGCYDELIALLHKVEFTPGKDTLWLTGDLVARGPGSLDVLRYVKSLGDSVRLVLGNHDLHLLAVFAGISRNKPKDRLTPLLEAPDADELLNWLRRQPLLQIDEEKKLVMAHAGITPQWDLQTAKECARDVEAVLSSDSYPFFLDAMYGDMPNNWSPELRGLGRLRFITNAFTRMRFCFPNGQLDMYSKESPEEAPAPLKPWFAIPGPVAEEYSIAFGHWASLEGKGTPEGIYALDTGCCWGGTLTCLRWEDKQYFVQPSNRHKDLGEAAAS
For B1, the Km (purified protein) was 13 ± 5 µM.
